Assay results: PubChem BioAssay AID2060483 (Molecular Pharmacology Branch, DTP, NCI, 2025)
Several values for one entry are separate records, joined by “and”; a condition that tells them apart may be missing. Equal entries are not always repeated.

Tested on: K24384-001-R-PDC complex spheroids, viability
Experiment: Anticancer human tumor K24384-001-R-PDC patient-derived pancreatic adenocarcinoma cell line growth inhibition [GQUAD]
Details: for viability, T/C: stronger effect = lower value
Source text: DNA G-quadruplex Stabilizer Agents in Combinations in Complex Spheroids
A high-throughput screen of multi-cell type tumor spheroids was designed to identify active combinations of DNA G-quadruplex stabilizer agents and targeted small molecules. Complex spheroids include a stromal component modeled by human endothelial cells (HUVEC) and fibroblasts modeled by human mesenchymal stem cells (MSCs). The concentration ranges selected for each drug and investigational agent were based upon clinically achievable concentrations if the clinical Cmax of the agent was known.
Compounds. The drugs and investigational agents: pidnarulex (CX-5461; NSC782164), APTO-253 (NSC789042), BRACO-19 (NSC847499), peposertib (NSC802822), ceralasertib (NSC780249), elimusertib (NSC800525), camonsertib (NSC841442), AZD-1390 (NSC803789), olaparib (NSC753686), talazoparib (NSC767125), ART-558 (NSC835418), sotorasib (NSC818433), MRTX-1133 (NSC836407), SN-38 (NSC673596), topotecan (NSC609699), etoposide (NSC141540), doxorubicin (NSC123127), gemcitabine (NSC613327), 5-fluorouracil (NSC19893), paclitaxel (NSC125973), vemurafenib (NSC761431), panobinostat (NSC761190), R-306465 (JNJ-16241199; NSC773264), adavosertib (NSC754352), TP-3654 (NSC805149), carboplatin (NSC241240), KSQ-4279 (NSC840948), and staurosporine (NSC755774) were obtained from the National Cancer Institute (NCI) Developmental Therapeutics Program Chemical Repository (34). The FDA-approved anticancer drug set is available from the NCI Developmental Therapeutics Program. […] The stock solutions were prepared in dimethyl sulfoxide (DMSO, Sigma-Aldrich, St. Louis, MO, cat. D2650) at 800-fold the tested concentration and stored at -70 degrees C prior to their use. All drugs and investigational agents were tested over a range starting from a high concentration at or near the clinical Cmax and decreasing in half-log increments. If the clinical Cmax for an agent had not been determined, the highest concentration tested was 10 microM.
2.3 Cell Culture. All cells were maintained in an incubator at 37 degrees C and 5% CO2 with 95% humidity. The PDC lines were cultured according to standard operating procedures established by the NCI PDMR. All PDCs were thawed and cultured in Matrigel-coated flasks prepared with a working solution of 1X Ham's F-12 nutrient mix, without supplementation (Invitrogen, cat. 11765054), 100 U/mL penicillin-streptomycin (Invitrogen, cat. 15140122), and 2.5% Matrigel (Corning Inc., cat. 354248) for the first three passages. The 857933-349-R-J2-PDC line was cultured in 6C/Colon 1B media, which includes advanced DMEM/F-12 (Thermo Fisher Scientific, cat. 12634028), 10 mM HEPES (Thermo Fisher Scientific, cat. 15630080), 1X GlutaMAX supplement (Thermo Fisher Scientific, cat. 35050061), 0.1 mg/mL primocin (InvivoGen, cat. ant-pm-2), 10% defined fetal bovine serum, heat inactivated (HyClone Laboratories Inc., cat. SH30070.03HI), 50% L-WRN conditioned media (ATCC, cat. CRL-3276), 1.25 mM N-Acetyl-L-cysteine (Sigma-Aldrich, cat. A9165), 10 mM nicotinamide (Sigma-Aldrich, cat. N0636), 1X B-27 supplement (Thermo Fisher Scientific, cat. 17504044), 1X N-2 supplement (Thermo Fisher Scientific, cat. 17502048), 10 microM Y-27632 dihydrochloride (Tocris Bioscience, cat. 1254), and 50 ng/mL human EGF recombinant protein (Thermo Fisher Scientific, cat. PHG0311). The 485176-168-R4-J1-PDC line was cultured in Panc media, which includes all 6C/Colon 1B media components plus 100 ng/mL human FGF-10 (Thermo Fisher Scientific, cat. 100-26), 500 nM SB-431542 (Selleckchem, cat. S1067), and gastrin (Tocris, cat. 3006).
[…]

[1] = curve of first compound, second compound 0.0316 µM
[2] = curve of first compound, second compound 0.1 µM
[3] = curve of first compound, second compound 0.316 µM
[4] = curve of first compound, second compound 1 µM
[5] = curve of first compound, second compound 3.16 µM
[6] = curve of first compound, second compound 10 µM
[7] = second compound 0.0316 µM, first compound 0.0316 µM
[8] = second compound 0.0316 µM, first compound 0.1 µM
[9] = second compound 0.0316 µM, first compound 0.316 µM
[10] = second compound 0.0316 µM, first compound 1 µM
[11] = second compound 0.0316 µM, first compound 3.16 µM
[12] = second compound 0.0316 µM, first compound 10 µM
[13] = second compound 0.1 µM, first compound 0.0316 µM
[14] = second compound 0.1 µM, first compound 0.1 µM
[15] = second compound 0.1 µM, first compound 0.316 µM
[16] = second compound 0.1 µM, first compound 1 µM
[17] = second compound 0.1 µM, first compound 3.16 µM
[18] = second compound 0.1 µM, first compound 10 µM
[19] = second compound 0.316 µM, first compound 0.0316 µM
[20] = second compound 0.316 µM, first compound 0.1 µM
[21] = second compound 0.316 µM, first compound 0.316 µM
[22] = second compound 0.316 µM, first compound 1 µM
[23] = second compound 0.316 µM, first compound 3.16 µM
[24] = second compound 0.316 µM, first compound 10 µM
[25] = second compound 1 µM, first compound 0.0316 µM
[26] = second compound 1 µM, first compound 0.1 µM
[27] = second compound 1 µM, first compound 0.316 µM
[28] = second compound 1 µM, first compound 1 µM
[29] = second compound 1 µM, first compound 3.16 µM
[30] = second compound 1 µM, first compound 10 µM
[31] = second compound 3.16 µM, first compound 0.0316 µM
[32] = second compound 3.16 µM, first compound 0.1 µM
[33] = second compound 3.16 µM, first compound 0.316 µM
[34] = second compound 3.16 µM, first compound 1 µM
[35] = second compound 3.16 µM, first compound 3.16 µM
[36] = second compound 3.16 µM, first compound 10 µM
[37] = second compound 10 µM, first compound 0.0316 µM
[38] = second compound 10 µM, first compound 0.1 µM
[39] = second compound 10 µM, first compound 0.316 µM
[40] = second compound 10 µM, first compound 1 µM
[41] = second compound 10 µM, first compound 3.16 µM
[42] = second compound 10 µM, first compound 10 µM
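Also: spheroids exposed to compounds for seven days.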

Question: What does the source list for `O=C(c1cc(Cc2n[nH]c(=O)c3ccccc23)ccc1F)N1CCN(C(=O)C2CC2)CC1` + Cc1cnc(CNC(=O)c2c(=O)c3ccc(N4CCCN(C)CC4)nc3n3c2sc2ccccc23)cn1?
Answer: IC50 [1]: > 10000 nM; IC50 [2]: > 10000 nM; IC50 [3]: > 10000 nM; IC50 [4]: 31.6 nM; IC50 [5]: < 31.6 nM; IC50 [6]: < 31.6 nM; viability, T/C [7]: 88.4%; viability, T/C [8]: 93.5%; viability, T/C [9]: 92.8%; viability, T/C [10]: 113%; viability, T/C [11]: 94.8%; viability, T/C [12]: 86.3%; viability, T/C [13]: 71.8%; viability, T/C [14]: 88.7%; viability, T/C [15]: 66.9%; viability, T/C [16]: 83.6%; viability, T/C [17]: 70.9%; viability, T/C [18]: 80.7%; viability, T/C [19]: 62.5%; viability, T/C [20]: 81.5%; viability, T/C [21]: 60%; viability, T/C [22]: 88.3%; viability, T/C [23]: 88.7%; viability, T/C [24]: 62.5%; viability, T/C [25]: 53%; viability, T/C [26]: 48.4%; viability, T/C [27]: 49.1%; viability, T/C [28]: 67.4%; viability, T/C [29]: 60.2%; viability, T/C [30]: 49.7%; viability, T/C [31]: 43.5%; viability, T/C [32]: 52.8%; viability, T/C [33]: 47.6%; viability, T/C [34]: 59.5%; viability, T/C [35]: 38.3%; viability, T/C [36]: 50.9%; viability, T/C [37]: 40.5%; viability, T/C [38]: 24.1%; viability, T/C [39]: 43.3%; viability, T/C [40]: 45.6%; viability, T/C [41]: 27.9%; viability, T/C [42]: 12.3%

Question: `CC1COCCN1c1cc(C2(O)CC3CCC(C2)O3)c2cnn(-c3ccn[nH]3)c2n1` (stereo not drawn) was tested. Which viability, T/C (compound 0.0316 µM) did it give?
Answer: 80.5% and 78% and 64.4%

Question: What about the viability, T/C (compound 0.1 µM) of the same compound?
Answer: 43.7% and 56.4% and 38.6%

Question: What about the viability, T/C (compound 0.316 µM) of the same compound?
Answer: 40% and 45.8% and 33.4%

Question: What about the viability, T/C (compound 1 µM) of the same compound?
Answer: 29.1% and 26.3% and 24.6%

Question: What about the viability, T/C (compound 3.16 µM) of the same compound?
Answer: 24.8% and 25.7% and 32.5%

Question: And the viability, T/C (compound 10 µM)?
Answer: 13.2% and 19% and 15%

Question: What about the IC50 (curve of compound) of the same compound?
Answer: 108 nM and 178 nM and 64.2 nM

Question: Which IC50 [1] does the source give for `C=CC(=O)N1CCN(c2nc(=O)n(-c3c(C)ccnc3C(C)C)c3nc(-c4c(O)cccc4F)c(F)cc23)C(C)C1` (stereo not drawn) + CN(C)c1ccc(Nc2c3ccc(NC(=O)CCN4CCCC4)cc3nc3cc(NC(=O)CCN4CCCC4)ccc23)cc1 here?
Answer: > 10000 nM

Question: And the IC50 [2]?
Answer: > 10000 nM

Question: And the IC50 [3]?
Answer: > 10000 nM

Question: What about the IC50 [4] of the same compound?
Answer: > 10000 nM

Question: And the IC50 [5]?
Answer: > 10000 nM

Question: What about the IC50 [6] of the same compound?
Answer: > 10000 nM

Question: What about the viability, T/C [7] of the same compound?
Answer: 95.5%

Question: What about the viability, T/C [8] of the same compound?
Answer: 93.2%

Question: What about the viability, T/C [9] of the same compound?
Answer: 107%

Question: What about the viability, T/C [10] of the same compound?
Answer: 104%

Question: What about the viability, T/C [11] of the same compound?
Answer: 99.6%

Question: What about the viability, T/C [12] of the same compound?
Answer: 93.3%

Question: And the viability, T/C [13]?
Answer: 100%

Question: And the viability, T/C [14]?
Answer: 102%

Question: And the viability, T/C [15]?
Answer: 112%

Question: What about the viability, T/C [16] of the same compound?
Answer: 121%

Question: And the viability, T/C [17]?
Answer: 123%

Question: What about the viability, T/C [18] of the same compound?
Answer: 87.8%

Question: What about the viability, T/C [19] of the same compound?
Answer: 100%

Question: And the viability, T/C [20]?
Answer: 101%

Question: What about the viability, T/C [21] of the same compound?
Answer: 105%

Question: What about the viability, T/C [22] of the same compound?
Answer: 96.6%

Question: What about the viability, T/C [23] of the same compound?
Answer: 128%

Question: And the viability, T/C [24]?
Answer: 98.6%

Question: And the viability, T/C [25]?
Answer: 101%

Question: And the viability, T/C [26]?
Answer: 129%

Question: What about the viability, T/C [27] of the same compound?
Answer: 113%

Question: And the viability, T/C [28]?
Answer: 115%

Question: What about the viability, T/C [29] of the same compound?
Answer: 147%

Question: And the viability, T/C [30]?
Answer: 85.7%

Question: What about the viability, T/C [31] of the same compound?
Answer: 101%

Question: And the viability, T/C [32]?
Answer: 100%

Question: And the viability, T/C [33]?
Answer: 100%

Question: And the viability, T/C [34]?
Answer: 93%

Question: And the viability, T/C [35]?
Answer: 110%

Question: And the viability, T/C [36]?
Answer: 79%

Question: What about the viability, T/C [37] of the same compound?
Answer: 81.6%

Question: And the viability, T/C [38]?
Answer: 99.7%

Question: What about the viability, T/C [39] of the same compound?
Answer: 82.3%

Question: What about the viability, T/C [40] of the same compound?
Answer: 109%

Question: And the viability, T/C [41]?
Answer: 89%

Question: And the viability, T/C [42]?
Answer: 62.2%

Question: `Cc1[nH]c2ccccc2c1CCNCc1ccc(/C=C/C(=O)NO)cc1` was tested. Which viability, T/C (compound 0.000999 µM) did it give?
Answer: 103% and 120% and 118%

Question: And the viability, T/C (compound 0.00316 µM)?
Answer: 96.8% and 103% and 92.5%

Question: And the viability, T/C (compound 0.00999 µM)?
Answer: 92.9% and 110% and 98.1%

Question: What about the viability, T/C (compound 0.0316 µM) of the same compound?
Answer: 90% and 89.4% and 90.5%

Question: And the viability, T/C (compound 0.0999 µM)?
Answer: 56.2% and 61% and 48.7%

Question: What about the viability, T/C (compound 0.316 µM) of the same compound?
Answer: 6.17% and 6.7% and 5.53%

Question: What about the IC50 (curve of compound) of the same compound?
Answer: 116 nM and 126 nM and 101 nM
